Test results taken from patent US11266667B2, “ABX196 for use in the treatment of bladder cancer” (ABIVAX, priority 2017, dated 2022).

System: MBT-2 tumors
Experiment: Anti-tumoral activity in MBT-2 syngeneic ectotopic (subcutaneous) tumor model
Format: in vivo, mouse
Design: key to Statistical significance for tumor growth versus Anti-PD-1: p value < 0.05*; ns: Ns: non significant
Description: The aim of this study is to determine the anti-tumoral activity of ABX196 or of anti-PD-1 antibody, administered systemically alone, in MBT2 syngeneic ectotopic models and in particular, to evaluate the capacity of these agents to treat established sub-cutaneous tumors.
Anti-PD-1 antibody (ref.: BE0146, BioXcell; clone: RMP1-14, reactivity: mouse; isotype: Rat IgG2a; storage conditions: +4° C.). Anti-PD-1 antibody is prepared in phosphate buffered saline (PBS) or other suitable vehicle according to manufacturer's recommendation. The anti-PD-1 antibody is administered at the dose of 10 mg/kg. Anti-PD-1 antibody is injected into the peritoneal cavity of mice (Intraperitoneally, IP). Anti-PD-1 antibody is administered at a dose volume of 10 mL/kg/adm.
ABX196 is provided as a solution at […] and is administered at the dose of 100 ng per mouse. ABX196 is injected by the intravenous route in the caudal vein of mice (IV, bolus). ABX196 is administered at a fixed dose volume of 100 μL (i.e. approximately 5 mL/kg/adm. for one mouse weighing 20 g).
Tumor cells are grown as monolayer at 37° C. in a humidified atmosphere (5% CO2, 95% air). The culture medium is RPMI 1640 containing 2 mM L-glutamine (ref: BE12-702F, Lonza, Verviers, Belgium) supplemented with 10% fetal bovine serum (ref: 3302, Lonza). Tumor cells are adherent to plastic flasks. For experimental use, tumor cells are detached from the culture flask by a 5-minutes treatment with trypsin-versene (ref: BE02-007E, Lonza), in Hanks' medium without calcium or magnesium (ref: BE10-543F, Lonza) and neutralized by addition of complete culture medium.
68 (sixty-eight) healthy female C3H/HeJ (C3H/HeOuJ) mice, 6-7 weeks old, are obtained from The Jackson Laboratory (Bar Harbor, Me.) for the MBT-2 model.
MBT-2 tumors are induced by subcutaneous injection of 1×10^6 cells in 200 μL of RPMI 1640 into the right flank of the sixty-eight female animals.
The treatment starts when the tumors reach a mean volume of 80-120 mm^3 (day 13 in this experiment). The sixty-eight mice for the MBT-2 model are randomized according to their individual tumor volume into 4 groups each (one not shown) of 12 animals using Vivo Manager® software (Biosystemes, Couternon, France). A statistical test (analysis of variance, ANOVA) is performed to test for homogeneity between groups. The treatment schedule was chosen as follows:
Animals from group 1 receive an IV injection of ABX196 vehicle and an IP injection of anti-PD-1 antibody vehicle,
Animals from group 2 receive an IV injection of 100 ng of ABX196,
Animals from group 3 receive twice weekly administrations of anti-PD-1 antibody,
Tumor growth inhibition (T/C) is defined as the ratio of the median tumor volumes of treated versus control group. The optimal value is the minimal T/C ratio reflecting the maximal tumor growth inhibition achieved.

[1] = day 20, one way ANOVA, pair wise Bonferroni's multiple comparison test

CCCCCCCCCCCCCCCCCCCCCCCC(=O)N[C@@H](CO[C@H]1O[C@H](CNC(C)=O)[C@H](O)[C@H](O)[C@H]1O)[C@H](O)[C@H](O)CCCCCCCCCCCCCC [ABX196]
T/C (%) (tumor growth inhibition, ratio of median tumor volumes of treated versus control group) (C3H/HeJ mice with subcutaneous MBT-2 tumors, day 23 after tumor induction, ABX196 100 ng IV Q1Dx1, anti-PD-1 10 mg/kg IP TWx2): 54% | Statistical significance for tumor growth versus Anti-PD-1 [1]: ns | Statistical significance for tumor growth versus Vehicle [1]: * (p value < 0.05*) | Mean tumor volume in function of time after tumor induction (FIG. 1), compared with anti-PD-1 antibodies (subcutaneous MBT-2 tumors, ABX196 100 ng IV Q1Dx1): reduces more efficiently the tumor volume than anti-PD-1 antibodies | Tumor growth inhibition (FIG. 2), compared with anti-PD-1 antibodies (subcutaneous MBT-2 tumors, day 23, ABX196 100 ng IV Q1Dx1): inhibits more efficiently the tumor growth than anti-PD-1 antibodies
